The NIST ThermoML archive (doi:10.1016/j.jct.2012.10.023)

Legend:
[1] = xn = mol fraction of the nth substance listed; conditions: 101 kPa, Liquid; for speed of sound: Sing-around technique in a fixed-path interferometer; for mass density: Vibrating tube method
[2] = 101.33 kPa, Liquid; for speed of sound: Sing-around technique in a fixed-path interferometer; for mass density: Vibrating tube method

Cc1ccc(C)cc1 [1,4-dimethylbenzene] + CCCCCCCCCO
[1], x1 = 1
Conditions	mass density [kg/m3]	speed of sound [m/s]
298.15 K	856.609	1309.5
308.15 K	847.881	1268.6

CCCCCCCCCO [nonan-1-ol] + CCc1ccccc1
[1]
Conditions	mass density, 298.15 K [kg/m3]	mass density, 308.15 K [kg/m3]	speed of sound, 298.15 K [m/s]	speed of sound, 308.15 K [m/s]
x2 = 0	824.271	817.362	1363.1	1330.4
x2 = 0.0611	825.837	818.832	1359.7	1326.2
x2 = 0.1285	827.606	820.495	1355.8	1321.2
x2 = 0.1791	828.979	821.784	1352.3	1317.2
x2 = 0.2466	830.861	823.552	1347.6	1312
x2 = 0.3151	832.863	825.431	1342.6	1306.5
x2 = 0.3717	834.594	827.054	1338.4	1301.9
x2 = 0.4254	836.312	828.667	1334.5	1297.6
x2 = 0.5007	838.858	831.059	1329.2	1291.8
x2 = 0.5756	841.598	833.621	1324.6	1286.4
x2 = 0.6411	844.187	836.032	1321	1282.3
x2 = 0.7122	847.192	838.876	1318	1278.8
x2 = 0.7798	850.293	841.821	1316	1276.2
x2 = 0.8557	854.062	845.455	1315.2	1275
x2 = 0.9341	858.405	849.669	1316.3	1274.9

CCCCCCCCCO [nonan-1-ol] + Cc1cc(C)cc(C)c1
[1]
Conditions	mass density, 298.15 K [kg/m3]	mass density, 308.15 K [kg/m3]	speed of sound, 298.15 K [m/s]	speed of sound, 308.15 K [m/s]
x2 = 0	824.271	817.362	1363.1	1330.4
x2 = 0.0696	826.211	819.181	1360.9	1327.3
x2 = 0.1267	827.826	820.708	1358.8	1324.6
x2 = 0.195	829.792	822.576	1356	1321
x2 = 0.2375	831.043	823.768	1354	1318.6
x2 = 0.3044	833.053	825.691	1350.8	1314.8
x2 = 0.362	834.839	827.405	1347.8	1311.4
x2 = 0.4358	837.211	829.683	1344.1	1307.4
x2 = 0.5112	839.754	832.121	1340.5	1303.3
x2 = 0.5777	842.112	834.381	1337.5	1300
x2 = 0.6422	844.512	836.681	1335.2	1297.5
x2 = 0.7091	847.143	839.209	1333.3	1295.2
x2 = 0.7788	850.052	841.998	1332.4	1293.7
x2 = 0.8571	853.546	845.418	1332.4	1293.1
x2 = 0.9234	856.701	848.558	1333.4	1293.8

Cc1cccc(C)c1 [1,3-dimethylbenzene]
[2]
Conditions	mass density [kg/m3]	speed of sound [m/s]
298.15 K	859.867	1320.1
308.15 K	851.236	1279.1

CCCCCCCCCO [nonan-1-ol] + Cc1ccc(C)cc1
[1]
Conditions	mass density, 298.15 K [kg/m3]	mass density, 308.15 K [kg/m3]	speed of sound, 298.15 K [m/s]	speed of sound, 308.15 K [m/s]
x2 = 0	824.271	817.362	1363.1	1330.4
x2 = 0.0611	825.819	818.805	1360.1	1326.3
x2 = 0.1108	827.09	819.99	1357.1	1322.6
x2 = 0.1652	828.491	821.297	1353.4	1318.2
x2 = 0.226	830.074	822.774	1349	1313.3
x2 = 0.2932	831.854	824.435	1343.9	1307.5
x2 = 0.3651	833.819	826.271	1338.4	1301.2
x2 = 0.4248	835.506	827.851	1333.5	1296.1
x2 = 0.5023	837.784	829.988	1327.5	1289.7
x2 = 0.558	839.499	831.601	1323.3	1285.2
x2 = 0.6359	842.032	833.99	1318.1	1279.6
x2 = 0.7123	844.678	836.494	1313.8	1274.8
x2 = 0.7744	846.969	838.668	1311	1271.7
x2 = 0.8514	850.015	841.569	1308.9	1269
x2 = 0.9286	853.306	844.715	1308	1268

Cc1ccc(C)cc1 [1,4-dimethylbenzene]
[2]
Conditions	mass density [kg/m3]	speed of sound [m/s]
298.15 K	856.609	1309.5
308.15 K	847.881	1268.6

CCCCCCCCCO [nonan-1-ol]
[2]
Conditions	mass density [kg/m3]	speed of sound [m/s]
298.15 K	824.271	1363.1
308.15 K	817.362	1330.4

Cc1cccc(C)c1 [1,3-dimethylbenzene] + CCCCCCCCCO
[1], x1 = 1
Conditions	mass density [kg/m3]	speed of sound [m/s]
298.15 K	859.867	1320.1
308.15 K	851.236	1279.1

Cc1cc(C)cc(C)c1 [1,3,5-trimethylbenzene]
[2]
Conditions	mass density [kg/m3]	speed of sound [m/s]
298.15 K	860.862	1336
308.15 K	852.659	1296.3

Cc1cc(C)cc(C)c1 [1,3,5-trimethylbenzene] + CCCCCCCCCO
[1], x1 = 1
Conditions	mass density [kg/m3]	speed of sound [m/s]
298.15 K	860.862	1336
308.15 K	852.659	1296.3

CCc1ccccc1 [ethylbenzene] + CCCCCCCCCO
[1], x1 = 1
Conditions	mass density [kg/m3]	speed of sound [m/s]
298.15 K	862.433	1318.6
308.15 K	853.607	1277.5

CCCCCCCCCO [nonan-1-ol] + Cc1ccccc1C
[1]
Conditions	mass density, 298.15 K [kg/m3]	mass density, 308.15 K [kg/m3]	speed of sound, 298.15 K [m/s]	speed of sound, 308.15 K [m/s]
x2 = 0	824.271	817.362	1363.1	1330.4
x2 = 0.0653	826.644	819.637	1361.7	1328.2
x2 = 0.136	829.283	822.169	1359.7	1325.5
x2 = 0.1773	830.871	823.694	1358.3	1323.7
x2 = 0.2281	832.869	825.612	1356.5	1321.4
x2 = 0.2834	835.111	827.766	1354.3	1318.8
x2 = 0.3463	837.756	830.309	1351.8	1315.8
x2 = 0.4203	841.015	833.448	1348.8	1312.5
x2 = 0.4761	843.593	835.935	1346.7	1310
x2 = 0.5478	847.079	839.304	1344.3	1307.3
x2 = 0.6327	851.482	843.569	1342.2	1304.7
x2 = 0.7121	855.922	847.884	1341.1	1303
x2 = 0.7974	861.062	852.892	1341	1302.3
x2 = 0.8695	865.751	857.475	1342.1	1302.8
x2 = 0.9287	869.902	861.543	1344	1304.3

Cc1ccccc1C [1,2-dimethylbenzene] + CCCCCCCCCO
[1], x1 = 1
Conditions	mass density [kg/m3]	speed of sound [m/s]
298.15 K	875.363	1348.2
308.15 K	866.507	1308.2

CCCCCCCCCO [nonan-1-ol] + Cc1cccc(C)c1
[1]
Conditions	mass density, 298.15 K [kg/m3]	mass density, 308.15 K [kg/m3]	speed of sound, 298.15 K [m/s]	speed of sound, 308.15 K [m/s]
x2 = 0	824.271	817.362	1363.1	1330.4
x2 = 0.066	826.04	819.011	1360.2	1326.5
x2 = 0.127	827.699	820.562	1357	1322.5
x2 = 0.1739	828.993	821.778	1354.2	1319.2
x2 = 0.2461	831.027	823.695	1349.4	1313.9
x2 = 0.2913	832.335	824.932	1346.4	1310.4
x2 = 0.3635	834.482	826.964	1341.4	1304.8
x2 = 0.4422	836.925	829.276	1335.9	1298.9
x2 = 0.4872	838.383	830.658	1332.9	1295.5
x2 = 0.5648	841.002	833.142	1328.2	1290.1
x2 = 0.6251	843.155	835.189	1324.7	1286.3
x2 = 0.6873	845.49	837.419	1321.9	1283
x2 = 0.7713	848.867	840.659	1319	1279.5
x2 = 0.8508	852.346	843.997	1317.8	1277.7
x2 = 0.9284	856.073	847.58	1318	1277.6
